Laboratory results reported in paper PMC9839752, “Formaldehyde reacts with N-terminal proline residues to give bicyclic aminals” (Communications Chemistry, 2023).
pEC50, pIC50: −log10 of the molar value. Read-outs that look alike come from different tables or passages of the source. Peptide text beside a SMILES is read from it.

What was measured:
[1] = 1H NMR time course of reaction of dipeptides with HCHO; assay type: physicochemical; conditions: dipeptide with 10-fold excess HCHO, pD 10, 1H NMR
Method: Fig. 3 HCHO reacts with an N-terminal proline to form a methylene bridge between an N-terminal nitrogen and the adjacent peptide bond nitrogen. a Products of reactions between HCHO and the dipeptides AzeGlu (n = 1, 1), ProGlu (n = 2, 2), and PipGlu (n = 3, 3). A 10-fold molar excess of aqueous HCHO (410 µmol) was added to each dipeptide (41 µmol).
The reactions of the dipeptides with HCHO (10-fold excess, pD 10) were studied in real time by ^1H NMR (Figs. 3c and S18). […] Dipeptide 2 was slower to react (2a formation rate 0.24 μM s^−1), while 3 was the slowest to react (3a formation rate 0.054 μM s^−1). […]
(§1) NMR Time Course and Stability – Dipeptides
The dipeptide (23.3 µmol) was dissolved in D 2O; the pD was adjusted to 10 (corresponding to pH 9.6) using NaOD and DCl (total volume: 1 mL, 23.3 mM stock). HCHO (30.0 mg, 1.0 mmol) was suspended with D2O in a sealed microwave vial and heated until a clear colourless solution was obtained; the pD was then adjusted with NaOD and DCl to 10 (total volume: 3 mL, 1/3 M stock). For time course measurements, the dipeptide stock solutions (100 μL, 2.33 μmol) at pD 10 and D 2O (400 μL) were mixed and recorded. HCHO (70 μL, 23.3 μmol, 10 equivalents) at pD 10 was added and progress was monitored for the indicated time. To investigate the stability of the NMR-observed HCHO adducts, a 40-fold excess with respect to starting material of the HCHO scavenger 1,3-cyclohexanedione (1,3-CHD, 93.2 μL from 1 M stock in D2O) was added. […]

[2] = NMR stability of HCHO adducts to HCHO scavengers and pH; assay type: physicochemical; conditions: for stability of HCHO adduct to 1,3-cyclohexanedione (1,3-CHD): 40-fold excess 1,3-CHD, pD 10, analysis period 22 h
Method: To investigate the stability and reversibility of the HCHO adducts (1a + b, 2a, 3a, 4a), the dipeptides were reacted with a 10-fold excess of HCHO at pD 10, then treated with the HCHO scavenger 1,3-cyclohexanedione (1,3-CHD)[14]. […]
as §1
The dipeptide (23.3 µmol) was dissolved in D 2O; the pD was adjusted to 10 (corresponding to pH 9.6) using NaOD and DCl (total volume: 1 mL, 23.3 mM stock). HCHO (30.0 mg, 1.0 mmol) was suspended with D2O in a sealed microwave vial and heated until a clear colourless solution was obtained; the pD was then adjusted with NaOD and DCl to 10 (total volume: 3 mL, 1/3 M stock). For time course measurements, the dipeptide stock solutions (100 μL, 2.33 μmol) at pD 10 and D 2O (400 μL) were mixed and recorded. HCHO (70 μL, 23.3 μmol, 10 equivalents) at pD 10 was added and progress was monitored for the indicated time. To investigate the stability of the NMR-observed HCHO adducts, a 40-fold excess with respect to starting material of the HCHO scavenger 1,3-cyclohexanedione (1,3-CHD, 93.2 μL from 1 M stock in D2O) was added.
Additionally, stability studies of the HPLC -purified 2a and the corresponding pentapeptide PEPAK-HCHO adduct were conducted. To achieve a 40-fold excess of HCHO scavengers (46.8 μmol) with respect to peptide starting material, the appropriate volumes of GSH (186.4 μL from 250 mM stock), cysteine (46.6 μL from 1 M stock) or 1,3 -cyclohexanedione (46.6 μL from 1 M stock) were added to the peptide-HCHO adducts (50 μL, 1.17 μmol, 23.3 mM stock in D2O) in 400 μL of D2O, thoroughly mixed and recorded. To test for stability of the adduct in different pH conditions, HPLC purified 2a (45 μL of 23.3 mM stock) was dissolved in 405 μL of 50 mM potassium phosphate buffer (D2O) at pH 5.9, 7.4 and 8.5 (pD 6.3, 7.8 and 8.9), thoroughly mixed and recorded.

4-OT [3] = target: T1, 4-OT (Pseudomonas putida, UniProt Q01468); experiment: cell-based
H3 mRNA = conditions: HEK293T, HCHO-treated vs untreated, q = 0.034
Method: (§2) We then investigated whether the H2B-HCHO adduct can be identified in human HEK293T cells treated with HCHO. […] Given that N-terminal amino acids and their modifications can regulate protein stability by affecting degradation (the N-end rule)[27], we next investigated whether addition of HCHO to cells affects H2B turnover. HEK293T cells were treated with cycloheximide (CHX) to inhibit protein synthesis, with addition of HCHO and protein quantification.
(§3) (ab133512). Secondary antibodies used were anti-mouse IgG, HRP-linked Antibody (Cell Signaling, reference 7076), anti-Rabbit IgG (H+L) HRP Conjugate (Promega reference W4011).
(§4) HEK293T cells (0.9x106) were seeded into 6 cm dishes as biological triplicates. The next day, cells were treated with 150 μM HCHO (or MQ water control), followed by another cumulative treatment of 225 μM HCHO (or MQ water control) the day after that. Cells were harvested 4 h af ter the second

H2A mRNA = conditions: HEK293T, HCHO-treated vs untreated, q = 0.043
Method: as §2, §3, §4

[4] = target: T2, 4-oxalocrotonate tautomerase (4-OT) (Pseudomonas putida, UniProt Q01468); experiment: biochemical
[5] = target: T2, 4-oxalocrotonate tautomerase (4-OT); conditions: 4-OT (52.9 µM) pre-incubated with 200 equivalents of HCHO (10.6 mM) 17 h, 37 °C; buffer control complete after 14 min
H3 = conditions: HEK293T, HCHO, CHX (100 µM)
Method: as §2
(§5) Figure S26 | Stability of proteins with an N-terminal proline in the presence of HCHO and RNA-Seq analyses. a) HEK293T cells were treated with 120 µM HCHO (or acetone, or MQ water control; 100 mM stock solutions of carbonyl compounds in MQ water) for 14 h. The cells were then treated with 100 µM cycloheximide (CHX; from a 100 mM DMSO stock solution) and were harvested after 3 h.
(§6) Additionally, HEK293T cells were treated with 120 µM HCHO (or acetone, or MQ water control) for 14 h, followed by addition of CHX. 7.5 h after the CHX treatment, a further 180 µM of the carbonyl […]
(§7) (1 picture or pasted object on this page, not shown here)

H2B = conditions: HEK293T, HCHO, >10 h CHX (100 µM)
Method: as §2, §5, §6, §7

[6] = target: leukotriene A-4 hydrolase (LTA4H) (Homo sapiens, UniProt P09960); conditions: HEK293T, CHX (100 µM)
Method: as §2, §5, §6, §7

H2A = conditions: HEK293T, HCHO, CHX (100 µM)
Method: as §2, §5, §6, §7

in vitro = conditions: human, hek293t cells
Method: as §2, §7

H2B mRNA = conditions: HEK293T, HCHO 150+225 µM vs untreated, q = 0.043
Method: as §2, §5, §6, §7, §3
HEK293T cells (0.9x106) were seeded into 6 cm dishes as biological triplicates. […]

4-OT [7] = target: T1, 4-OT; experiment: 4-OT absorbance assay (320 nm), kinetic parameters; assay type: biochemical; conditions: substrate acetaldehyde, 375 µM trans-β-nitrostyrene, 10 µM 4-OT, pH 7.4
human JmjC KDM KDM4E = target: T3, human JmjC KDM KDM4E (Homo sapiens, UniProt B2RXH2); experiment: KDM4E-catalysed H3K9Me3 peptide demethylation, MALDI MS; assay type: biochemical; conditions: 800 μM NOG instead of 2OG, 24 h
T3 construct: made in house; host or cells: E. coli BL21(DE3)
T3 sequence (B2RXH2 with tags, fused parts or gaps): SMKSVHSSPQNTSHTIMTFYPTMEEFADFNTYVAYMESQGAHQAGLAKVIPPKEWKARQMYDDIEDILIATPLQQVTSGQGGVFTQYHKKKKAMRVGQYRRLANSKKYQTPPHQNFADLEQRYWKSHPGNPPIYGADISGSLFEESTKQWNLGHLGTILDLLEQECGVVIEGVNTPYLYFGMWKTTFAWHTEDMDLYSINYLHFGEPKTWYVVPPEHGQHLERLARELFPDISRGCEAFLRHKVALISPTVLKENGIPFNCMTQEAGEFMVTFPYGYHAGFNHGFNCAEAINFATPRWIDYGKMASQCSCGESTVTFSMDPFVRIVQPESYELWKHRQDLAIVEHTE

T1 sequence (Q01468 2-63 limits assumed): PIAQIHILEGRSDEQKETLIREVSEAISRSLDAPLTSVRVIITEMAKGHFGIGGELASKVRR
T2 sequence (Q01468 2-63): as the sequence (Q01468 2-63 limits assumed) above
Sequence of leukotriene A-4 hydrolase (LTA4H) (P09960 2-611 limits assumed): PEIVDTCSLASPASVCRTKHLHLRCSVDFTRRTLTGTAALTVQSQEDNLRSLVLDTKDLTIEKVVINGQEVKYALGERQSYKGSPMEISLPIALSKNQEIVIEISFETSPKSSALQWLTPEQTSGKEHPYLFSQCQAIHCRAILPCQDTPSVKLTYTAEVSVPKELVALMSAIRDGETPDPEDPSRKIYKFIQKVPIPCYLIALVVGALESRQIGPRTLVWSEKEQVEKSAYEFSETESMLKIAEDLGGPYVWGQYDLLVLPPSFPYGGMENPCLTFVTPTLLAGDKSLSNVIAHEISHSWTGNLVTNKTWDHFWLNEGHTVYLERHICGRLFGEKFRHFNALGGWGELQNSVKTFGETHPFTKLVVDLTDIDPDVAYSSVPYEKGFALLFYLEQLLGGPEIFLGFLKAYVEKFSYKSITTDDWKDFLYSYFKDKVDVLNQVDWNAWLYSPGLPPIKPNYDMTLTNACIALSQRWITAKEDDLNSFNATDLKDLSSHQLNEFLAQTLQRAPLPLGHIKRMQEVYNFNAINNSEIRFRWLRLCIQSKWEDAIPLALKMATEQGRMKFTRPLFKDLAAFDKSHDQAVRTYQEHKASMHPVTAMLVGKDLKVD

O=C(O)CC[C@@H](C(=O)O)N1CN2CCC[C@H]2C1=O [2a]
formation rate of HCHO adduct [1]: 0.24 µM/s
stability of HCHO adduct to 1,3-cyclohexanedione (1,3-CHD) [2]: relatively stable
stability across a biologically relevant pH range ([2]; pH 5.9, 7.4 and 8.5): apparently stable
stability in the presence of HCHO scavengers cysteine and GSH ([2]; scavengers in 40-fold excess): apparently stable

C[C@H]1C(=O)N([C@@H](CCC(=O)O)C(=O)O)CN1CO [4a]
stability of HCHO adduct to 1,3-cyclohexanedione (1,3-CHD) [2]: hemiaminal group of 4a was lost to give 4b

O=C(O)CC[C@@H](C(=O)O)N1CN2CC[C@H]2C1=O [1a]
formation rate of HCHO adduct [1]: > 1.73 µM/s
stability of HCHO adduct to 1,3-cyclohexanedione (1,3-CHD) [2]: underwent 1,3-CHD-enabled reaction to give 1

O=C(O)CC[C@@H](C(=O)O)N1CN2CCCC[C@H]2C1=O [3a]
formation rate of HCHO adduct [1]: 0.054 µM/s
stability of HCHO adduct to 1,3-cyclohexanedione (1,3-CHD) [2]: relatively stable

C=O [HCHO, Formaldehyde]
pEC50 (4-OT [3]): ~3.46
H3 mRNA level, fold less in untreated cells (H3 mRNA): 0.42 fold
H2A mRNA level, fold less in untreated cells (H2A mRNA): 0.33 fold
pIC50 [4]: > 2.00
time to near-complete substrate conversion [5]: > 72 min
effect on cell proliferation (BL21(DE3) cells; 350 μM HCHO): did not inhibit
effect on cell proliferation (BL21(DE3) cells; 700 μM HCHO): only mildly inhibited
H3 levels after prolonged CHX treatment (H3): higher levels
H2B levels after prolonged CHX treatment (H2B): apparently higher H2B levels
HCHO-dependent effect on LTA4H stability [6]: no evidence for a HCHO-dependent effect on its stability
H2A levels after prolonged CHX treatment (H2A): higher levels
MNTC (in vitro): > 200 µM
H2B mRNA level, fold less in untreated cells (H2B mRNA): 0.37 fold

CC=O [acetaldehyde]
Km (4-OT [7]): 74 mM

O=C(O)CC[C@H](NC(=O)[C@@H]1CCN1CO)C(=O)O [1b]
stability of HCHO adduct to 1,3-cyclohexanedione (1,3-CHD) [2]: underwent 1,3-CHD-enabled reaction to give 1

O=C(O)CNC(=O)C(=O)O [N-oxalylglycine]
effect on H3K9Me3 demethylation and +12 Da H2B adduct formation (human JmjC KDM KDM4E): abolished

C[C@H](N)C(=O)N[C@@H](CCC(=O)O)C(=O)O [compound 4, AlaGlu] (H-Ala-Glu-OH)
formation rate of HCHO adduct [1]: did not react to give a detected product
